Results on 17 molecules are retold here after PubChem BioAssay (NCI).

Where “and” joins values, the source holds several entries; their conditions need not be identical. Equal entries are not always repeated.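 Five compound concentrations were applied to cells in 96-well plates for 48 hours; endpoints were derived by simple linear interpolation of the resulting dose-response curve. GI50: concentration for 50% inhibition of growth. TGI is the concentration that stops growth completely.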 Where a SMILES comes first, the peptide text is derived from it. Bridges are numbered along the chain shown (N, C = ends). [ ]: non-standard residue; d: D form. Aib = CC(C)(N)C(=O)O; βAla = NCCC(=O)O Some results are limits rather than exact numbers.

What all share (assay): NCI tumour cell line growth inhibition, 48 h
The subject of assay [1] is MCF7 breast.
Assay [2] has as its system OVCAR-4 ovarian.
The subject of assay [3] is TK-10 renal.
Assay [4] relates to SK-OV-3 ovarian.
In assay [5] the test system is BT-549 breast.
Assay [6] relates to SK-MEL-2 melanoma.
Assay [7] deals with SNB-19 CNS.
Assay [8] deals with 786-0 renal.
The subject of assay [9] is OVCAR-8 ovarian.
In assay [10] the test system is SK-MEL-5 melanoma.
The subject of assay [11] is HOP-62 NSCLC.
In assay [12] the test system is SF-539 CNS.
The subject of assay [13] is HOP-92 NSCLC.
The test system of assay [14] is CCRF-CEM leukemia.
Assay [15] deals with SF-268 CNS.
Assay [16] deals with HCC-2998 colon.

For the molecule `COc1ccc(S(=O)(=O)N2C(=O)CCC2C(=O)NC(N)=O)cc1` (stereo not drawn), the TGI in assay [1], in [2], in [3], in assay [4], in assay [5] and in [6] was more than 100 µM each time. For the same molecule, the TGI in assay [7], in [8], in assay [9], in assay [10], in assay [11] and in assay [12] was more than 100 µM throughout. Also, the TGI in assay [13] and in assay [14] was more than 100 µM each time.

`CCOc1cc(C2CC(c3ccc(NS(=O)(=O)c4cc([N+](=O)[O-])ccc4C)cc3)=NN2S(=O)(=O)c2cc([N+](=O)[O-])ccc2C)ccc1O` (stereo not drawn): the TGI in [1] was more than 100 µM; in [2], more than 100 µM; in [3] it was more than 100 µM; in assay [4], more than 100 µM; in assay [5], more than 100 µM; in assay [6], 62 µM. Besides, the TGI in [7] was more than 100 µM; in assay [8], 98.7 µM; in [15], more than 100 µM; in [9], more than 100 µM; in assay [10], 64.8 µM; in assay [11], more than 100 µM. In addition, the results for the TGI in assay [12], in assay [13] and in [14] were more than 100 µM, 60.7 µM and more than 100 µM, respectively.

With `CC1OC(OC2C(OC(=O)[C@]34CCC(C)(C)C[C@H]3C3=CC[C@@H]5[C@@]6(C)CC[C@H](OC7OC(C(=O)O)C(O)C(O)C7O)C(C)(C)[C@@H]6CC[C@@]5(C)[C@]3(C)C[C@H]4O)OCC(O)C2O)C(O)C(O)C1OC1OCC(O)C(O)C1O` (stereo partly drawn), the GI50 is 14.4 µM and 5.24 µM in assay [1]; 4.02 µM and 1.4 µM in assay [16]; 15.4 µM and 3.47 µM in assay [6]; 13.2 µM and 2.33 µM in assay [9]. For the same molecule, the TGI is 29.4 µM and 17.8 µM in assay [1]; 31.7 µM in assay [2]; 33.1 µM and 32 µM in [4]; 12.7 µM and 3.07 µM in assay [16]; 26.9 µM and 29.8 µM in [5]; 30.4 µM and 12.4 µM in assay [6]. Further, the TGI was 25.8 µM and 23.8 µM in assay [7]; 28.8 µM and 26.1 µM in [8]; 34.6 µM and 25.4 µM in assay [15]; 26.5 µM and 5.19 µM in [9]; 30.5 µM and 34.7 µM in assay [10]; 32.7 µM and 28.3 µM in assay [11]. In addition, the TGI in assay [13] was 26.9 µM and 24.4 µM; in assay [14], 36.1 µM and 61.2 µM.

Turning to `NC(=O)C1CCCN1C(=O)C(Cc1cnc[nH]1)NC(=O)C1CCCC1` (stereo not drawn), the TGI in assay [1], in [2], in assay [3], in assay [4], in assay [16] and in [5] was more than 100 µM throughout. The TGI in assay [7], in assay [8], in [9], in assay [10], in [11] and in assay [13] was more than 100 µM each time. The molecule further yielded a TGI in assay [14] of more than 100 µM.

As for `CC(=O)O[C@@H]1C[C@]2(C(=O)c3ccccc3)C(=O)C(=O)S[C@]12c1ccccc1`, the TGI in assay [1] is more than 100 µM; in [2] it was more than 100 µM; in assay [3], more than 100 µM; in [4], more than 100 µM; in [16], 75.1 µM; in assay [5], more than 100 µM. Besides, the TGI in assay [6], in assay [7], in assay [8], in assay [15], in assay [9] and in [10] was more than 100 µM each time. Also, the TGI in assay [11] was more than 100 µM; in assay [12], 60.4 µM; in assay [13] it was more than 100 µM.

Regarding `C[C@H](C1CC(C)(O)C(C)(O)C(O)O1)[C@H]1CC[C@H]2[C@@H]3[C@@H]4O[C@@H]4[C@@]4(O)CC=CC(=O)[C@]4(C)[C@H]3CC[C@]12C` (stereo partly drawn), the TGI in [1], in [2], in [3], in assay [4], in [16] and in assay [5] was more than 50 µM each time. Also, the TGI in [6], in assay [7], in assay [8], in [15], in assay [9] and in assay [10] was more than 50 µM in each case. Further, the TGI in assay [11], in assay [13] and in [14] was more than 50 µM throughout.

Regarding `CC(/C=C/C(=O)NO)=C\C(C)C(=O)c1ccc(N(C)C)cc1` (stereo not drawn), the TGI in assay [1] is more than 100 µM; in [2] it was 16.8 µM; in assay [3], 0.107 µM; in assay [4] it was 0.224 µM; in assay [16] it was less than 0.0113 µM; in assay [5], more than 60.4 µM. The TGI in assay [6] worked out at 0.778 µM; in [7], 0.654 µM; in assay [8], 6.42 µM; in [15], 0.195 µM; in assay [9] it was 41.6 µM; in assay [10] it was 0.187 µM. For the same molecule, the TGI was determined as 14.6 µM in assay [11], 2.04 µM in assay [12] and 0.388 µM in assay [13].

`OC1(C(Sc2cc(C(F)(F)F)cc(C(F)(F)F)c2)Sc2cc(C(F)(F)F)cc(C(F)(F)F)c2)C=CCCC1` (stereo not drawn): the TGI in assay [1] came to 4.58 µM; in assay [2], 7.06 µM; in assay [3] it was 3.8 µM; in [4] it was 11.3 µM; in [16] it was 3.25 µM; in assay [5] it was 9.89 µM. The TGI in assay [7] was found to be 8.2 µM; in [8], 8.09 µM; in [15], 8.81 µM; in assay [9], 7.9 µM; in [10], 16.6 µM; in assay [11], 11.4 µM. The TGI in [13] turned out to be 9.15 µM; in assay [14], 6.39 µM.

With `COC(=O)c1c([N+](=O)[O-])ncn1[C@H]1OC[C@@H](OC(C)=O)[C@@H](OC(C)=O)[C@@H]1OC(C)=O`, the TGI in assay [1], in assay [2], in [3], in [4], in assay [16] and in [5] was more than 100 µM in each case. In addition, the TGI in assay [7], in assay [8], in [15], in [9], in assay [11] and in assay [12] was more than 100 µM each time. In addition, the TGI in [13] and in assay [14] was more than 100 µM in each case.

`COc1ccc(C2SC(N)=Nc3c2c(C)nn3C(=O)c2ccccc2O)cc1OC` (stereo not drawn): the TGI in assay [1], in assay [2], in assay [3], in assay [4], in assay [5] and in [6] was more than 10 µM in each case. Besides, the TGI was more than 10 µM in assay [7]; more than 10 µM in assay [8]; more than 10 µM in assay [15]; more than 10 µM in [11]; more than 10 µM in assay [12]; 4.36 µM in assay [13]. The molecule further registered a TGI in assay [14] of more than 10 µM.

For the molecule `CC1(C)NC(=O)C(NC(=O)C(N)CC(=O)O)CCCCNC(=O)CCNC1=O` (stereo not drawn) (H-DK[Aib][βAla]; lactam 2-C; configuration not given here), the TGI in assay [1], in [2], in [3], in assay [4], in [5] and in assay [6] was more than 100 µM each time. Also, the TGI in assay [7], in [8], in [15], in [9], in assay [10] and in assay [11] was more than 100 µM in each case. The TGI in assay [12], in [13] and in assay [14] was more than 100 µM throughout.

Consider `N#CC12C(=O)N3C(=NC(c4ccco4)NC3c3ccco3)C1(C#N)C(c1ccco1)NC1=C2CCCC1` (stereo not drawn), for which the TGI in assay [1], in assay [2], in [3], in [4], in assay [16] and in assay [5] was more than 100 µM in each case. For the same molecule, the TGI in [6], in assay [7], in assay [8], in [15], in [9] and in [10] was more than 100 µM in each case. In addition, the TGI in assay [11] and in [13] was more than 100 µM each time.

For the molecule `Nc1nc(Cl)cc(NCC2(O)CCC2)n1`, the TGI in assay [1], in assay [2], in [3], in assay [4], in assay [16] and in assay [5] was more than 100 µM throughout. For the same molecule, the TGI in assay [6], in assay [8], in assay [15], in assay [9], in assay [10] and in assay [11] was more than 100 µM in each case. Further, the TGI in [12] and in assay [13] was more than 100 µM each time.

`CC1=C(C#N)C(=C(C#N)C#N)OC1(C)Cc1ccccc1` (stereo not drawn): the TGI in [1] was more than 100 µM; in [2], 60.3 µM; in assay [3], more than 100 µM; in assay [4] it was more than 100 µM; in assay [16] it was 89.6 µM; in assay [5], more than 100 µM. In addition, the TGI in assay [6], in [7], in [8], in assay [15], in assay [9] and in assay [10] was more than 100 µM throughout. The TGI in assay [11] was more than 100 µM; in assay [12], more than 100 µM; in [13], 38.6 µM.

As for `Cc1ccc([N+](=O)[O-])cc1S(=O)(=O)Nc1ccc(C2=NN(S(=O)(=O)c3cc([N+](=O)[O-])ccc3C)C(c3ccccc3)C2)cc1` (stereo not drawn), the TGI in [1] is more than 100 µM; in assay [2], more than 100 µM; in assay [3], more than 100 µM; in [4] it was more than 100 µM; in assay [16] it was 59.8 µM; in [5] it was 57.2 µM. Also, the TGI in assay [6] was 61.6 µM; in assay [7], more than 100 µM; in assay [8], more than 100 µM; in assay [15] it was 56.7 µM; in assay [9], more than 100 µM; in assay [10] it was more than 100 µM. Besides, the TGI in assay [11], in assay [13] and in assay [14] was more than 100 µM in each case.

Regarding `COc1ccc2c3c1OC1C(F)C=CC4(O)C(C2)NCCC314` (stereo not drawn), the TGI turned out to be 5.25 µM in assay [1]; 7.05 µM in [2]; 12.8 µM in assay [3]; 10.3 µM in assay [4]; 12.8 µM in [16]; 6.66 µM in assay [5]. For the same molecule, the TGI in [6] is 6.65 µM; in assay [7], 5.78 µM; in [8], 3.27 µM; in assay [15], 6.93 µM; in assay [9] it was 14.7 µM; in assay [10], 16.1 µM. The TGI was found to be 7.13 µM in [11], 20.2 µM in assay [13] and 3.91 µM in assay [14].

As to `Cc1cc(S(=O)(=O)Nc2n[nH]c(-c3ccc(Cl)cc3)n2)c(SSc2cc(Cl)c(C)cc2S(=O)(=O)Nc2n[nH]c(-c3ccc(Cl)cc3)n2)cc1Cl`, the TGI was more than 100 µM in assay [1]; more than 100 µM in assay [2]; more than 100 µM in assay [3]; more than 100 µM in assay [4]; 40.7 µM in [16]; more than 100 µM in assay [5]. The TGI in [8] was more than 100 µM; in [15] it was more than 100 µM; in [9], more than 100 µM; in assay [10], 86.8 µM; in [11] it was more than 100 µM; in assay [12], more than 100 µM. The TGI in [13] stood at 76.8 µM; in [14], 60.6 µM.
